From patent US6436918B1, “Steroid sulfatase inhibitors and methods for making and using the same” (Duquesne University of the Holy Ghost, priority 1997, dated 2002)
Read-outs that look alike come from different tables or passages of the source.

Biological target: T1, recombinant human estrone sulfatase (Homo sapiens, UniProt P08842)
T1 construct: made in house; host or cells: Chinese Hamster Ovary (CHO) cells
T1 sequence (P08842 22-583): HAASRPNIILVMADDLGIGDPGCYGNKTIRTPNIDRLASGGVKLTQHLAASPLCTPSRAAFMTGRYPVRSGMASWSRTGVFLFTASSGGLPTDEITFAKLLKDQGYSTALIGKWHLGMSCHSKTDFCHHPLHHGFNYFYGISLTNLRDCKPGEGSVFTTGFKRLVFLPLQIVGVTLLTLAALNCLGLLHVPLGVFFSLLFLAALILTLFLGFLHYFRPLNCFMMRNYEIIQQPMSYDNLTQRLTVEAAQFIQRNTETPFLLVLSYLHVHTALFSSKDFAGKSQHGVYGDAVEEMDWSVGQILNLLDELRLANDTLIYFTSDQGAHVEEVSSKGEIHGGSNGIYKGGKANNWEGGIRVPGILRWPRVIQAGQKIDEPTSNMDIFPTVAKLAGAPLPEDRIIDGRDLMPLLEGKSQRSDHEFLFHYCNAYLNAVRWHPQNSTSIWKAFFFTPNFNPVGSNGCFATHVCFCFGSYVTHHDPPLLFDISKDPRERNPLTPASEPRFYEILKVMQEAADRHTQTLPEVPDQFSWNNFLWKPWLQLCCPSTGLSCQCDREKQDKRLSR
Assay: in vitro conversion assay: inhibition of conversion of 3H-estrone sulfate to 3H-estrone by estrone sulfatase
Assay type: biochemical
Experimental: The compounds prepared according to the methods of the above Examples were tested for biological activity in inhibiting sulfatase activity using an in vitro conversion assay procedure. As will be appreciated by those skilled in the art, this assay is based on inhibition of the conversion of ^3H-estrone sulfate to ^3H-estrone by the enzyme estrone sulfatase. The final volume of the enzyme assay was 0.15 ml. [6.7-^3H] estrone sulfate (final concentration 3.3 nmole/L; 300,000 dpm/tube); an inhibitor at various concentrations in DMSO and recombinant human estrone sulfatase (33 ng/tube) in phosphate buffered saline, containing 0.25 M sucrose and 0.04 M nicotinamide, pH 7, were added to a 1.5 ml microtube. Recombinant human estrone sulfatase was partially purified from Chinese Hamster Ovary (CHO) cells in which human estrone sulfatase cDNA was transfected. The assay began by the addition of the substrate estrone sulfate. After 60 minutes of incubation at 37° C., 0.5 ml of toluene were added to quench the assay. Control samples with no inhibitor were incubated simultaneously. Blank samples were obtained by incubating without estrone sulfatase. The quenched samples were vortexed for 30 seconds and centrifuged (9,000 rpm for 5 minutes). Two hundred and fifty microliters of toluene were obtained from each quenched sample to determine the amount of product formation. Product formation for samples containing an inhibitor was compared to that of control samples (without inhibitors) run simultaneously. This was reported as percent inhibition of control sample which equals
100× Product formation for sample containing inhibitor Product formation for sample with no inhibitor (control)
Each concentration was tested in duplicate in three separate experiments.

[1] = Table 3 (Example 8; compounds 7, 29d, 29h, 29m), same in vitro conversion assay, read-out: IC50

Compound	IC50 [1] [µM]	IC50 [µM]
CCCNC(=O)[C@H]1CC[C@H]2[C@@H]3CCc4cc(OS(N)(=O)=O)ccc4[C@H]3CC[C@]12C [Compound 7, 17β-(N-Propylcarbamoyl)estra-1,3,5(10)-trien-3-yl sulfamate]	0.019	
CC(C)NC(=O)[C@H]1CC[C@H]2[C@@H]3CCc4cc(OS(N)(=O)=O)ccc4[C@H]3CC[C@]12C [Compound 29h, 17β-(N-Isopropylcarbamnoyl)estra-1,3,5(10)-trien-3-yl sulfamate]	0.017	
CC(C)CNC(=O)[C@H]1CC[C@H]2[C@@H]3CCc4cc(OS(N)(=O)=O)ccc4[C@H]3CC[C@]12C [Compound 29d, 17β-(N-Isobutylcarbamoyl)estra-1,3,5(10)-trien-3-yl sulfamate]		0.0065
CCCN(C)C(=O)[C@H]1CC[C@H]2[C@@H]3CCc4cc(OS(N)(=O)=O)ccc4[C@H]3CC[C@]12C [Compound 29m, 17β-(N-methyl-N-Propylcarbamoyl)estra-1,3,5 (10)-trien-3-yl sulfamate]		0.0055
